These results are taken from PubChem BioAssay (NCI).

Several values for one entry are separate records, joined by “and”; a condition that tells them apart may be missing. Identical values can stand only once.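 All cell lines were grown in 96-well plates and treated with compound for 48 hours. Here, GI50 denotes the concentration required for 50% inhibition of growth. The concentration for full growth arrest is given as TGI.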

Some test systems named below: OVCAR-5 ovarian; UO-31 renal; 786-0 renal; IGROV1 ovarian; NCI-H23 lung; RPMI-8226 leukemia; ACHN renal; SNB-19 CNS; SK-OV-3 ovarian; SF-268 CNS.
Experiment in all cases: growth of human tumour cells (NCI), 48 h

On to `COc1ccc(-c2nn(-c3cccc(NC(=O)c4cccc(C(F)(F)F)c4)c3)cc2-c2ccncc2)cc1Cl`, for which the GI50 with OVCAR-5 ovarian is 12.2 µM; in the experiment on UO-31 renal, 2.85 µM; in the experiment on 786-0 renal it was 2.91 µM; in the experiment with IGROV1 ovarian, 7.06 µM; in the experiment on NCI-H23 lung, 3.58 µM; with RPMI-8226 leukemia, 2.5 µM. The GI50 in the experiment with ACHN renal is 4.4 µM; in the experiment with SNB-19 CNS, 5.7 µM; in the experiment on SK-OV-3 ovarian, 3.91 µM; with SF-268 CNS, 4.08 µM. Moreover, the TGI with OVCAR-5 ovarian was over 100 µM; in the experiment with UO-31 renal, over 100 µM; in the experiment with 786-0 renal it was 27.5 µM; in the experiment with IGROV1 ovarian, over 100 µM; with NCI-H23 lung, 92.8 µM; in the experiment with RPMI-8226 leukemia, 49 µM. In addition, the TGI with ACHN renal, in the experiment with SNB-19 CNS, in the experiment on SK-OV-3 ovarian and with SF-268 CNS was over 100 µM throughout.

In the case of `N#CCCSC(=S)C1CCCC1=N` (stereo unspecified), the TGI with OVCAR-5 ovarian, in the experiment with UO-31 renal, in the experiment with 786-0 renal, in the experiment on IGROV1 ovarian, in the experiment with NCI-H23 lung and in the experiment with RPMI-8226 leukemia was over 100 µM throughout. Further, the TGI with ACHN renal, in the experiment on SNB-19 CNS, in the experiment with SK-OV-3 ovarian and with SF-268 CNS was over 100 µM each time.

For the compound `Nc1ccc(-c2nc3ccccc3o2)cc1S`, the GI50 in the experiment on OVCAR-5 ovarian was 19.2 µM; with UO-31 renal, 19.5 µM; in the experiment on 786-0 renal, 14.5 µM; with IGROV1 ovarian it was 19.7 µM; with NCI-H23 lung it was 14.5 µM; in the experiment with RPMI-8226 leukemia it was 12.4 µM. The GI50 is 12.1 µM in the experiment on ACHN renal, 22.9 µM in the experiment on SNB-19 CNS, 23.2 µM in the experiment with SK-OV-3 ovarian and 15 µM in the experiment on SF-268 CNS. Also, the TGI with OVCAR-5 ovarian was 45.3 µM; in the experiment on UO-31 renal, 50.6 µM; with 786-0 renal, 27.6 µM; in the experiment on IGROV1 ovarian it was over 100 µM; in the experiment on NCI-H23 lung, 35.6 µM; with RPMI-8226 leukemia it was 32 µM. Besides, the TGI in the experiment with ACHN renal turned out to be 24.4 µM; in the experiment on SNB-19 CNS it was 81.3 µM; in the experiment on SK-OV-3 ovarian, 65.1 µM; in the experiment with SF-268 CNS, 34.5 µM.

In the case of `Cc1cc2cc3cc(C)c(N)cc3[n+](C)c2cc1N`, the GI50 with OVCAR-5 ovarian is 3.94 µM; in the experiment with UO-31 renal, 2.16 µM; with 786-0 renal, 2.6 µM; in the experiment on IGROV1 ovarian it was 2.66 µM; in the experiment with NCI-H23 lung it was 1.09 µM; in the experiment on RPMI-8226 leukemia, 0.615 µM. Moreover, the GI50 was 1.95 µM in the experiment with ACHN renal, 1.13 µM with SNB-19 CNS, 2.09 µM with SK-OV-3 ovarian and 2.03 µM with SF-268 CNS. The TGI in the experiment with OVCAR-5 ovarian came out at 16 µM; in the experiment with UO-31 renal, 11.6 µM; with 786-0 renal it was 11.5 µM; with IGROV1 ovarian it was 15.3 µM; in the experiment with NCI-H23 lung, 5.11 µM; in the experiment on RPMI-8226 leukemia it was 4.57 µM. In addition, the TGI was found to be 8.27 µM in the experiment with ACHN renal, 12.4 µM in the experiment on SNB-19 CNS, 11 µM in the experiment on SK-OV-3 ovarian and 6.98 µM in the experiment with SF-268 CNS.

For the compound `CNC(=O)NC(CCCCNC(=O)OCc1ccccc1)C(=O)OCc1ccccc1` (stereo unspecified), the TGI with OVCAR-5 ovarian was 98.2 µM; in the experiment on UO-31 renal, 98.3 µM; with 786-0 renal, over 100 µM; in the experiment on IGROV1 ovarian it was over 100 µM; in the experiment with NCI-H23 lung, over 100 µM; with RPMI-8226 leukemia, 67.4 µM. Moreover, the TGI with ACHN renal, in the experiment with SNB-19 CNS, in the experiment with SK-OV-3 ovarian and in the experiment with SF-268 CNS was over 100 µM throughout.

As to `CCCCCCCCCCCCCCCCCC(=O)OCC(COC1OC(CS(=O)(=O)O)C(O)C(O)C1O)OC(=O)CCCCCCCCCCCCCCCCC` (stereo unspecified), the TGI with OVCAR-5 ovarian, in the experiment with 786-0 renal, in the experiment with IGROV1 ovarian, with NCI-H23 lung, with RPMI-8226 leukemia and in the experiment on ACHN renal was over 100 µM each time. In addition, the TGI with SNB-19 CNS, in the experiment with SK-OV-3 ovarian and with SF-268 CNS was over 100 µM in each case.

With `CSc1nc(C)c(Br)c(=O)n1C1OC(COC(C)=O)C(OC(C)=O)C(OC(C)=O)C1OC(C)=O` (stereo unspecified), the TGI was over 100 µM in the experiment with OVCAR-5 ovarian; over 100 µM with UO-31 renal; > 100 µM and 48.5 µM in the experiment with 786-0 renal; > 100 µM and 71.5 µM in the experiment on IGROV1 ovarian; over 100 µM with NCI-H23 lung; over 100 µM with RPMI-8226 leukemia. For the same compound, the TGI is over 100 µM with ACHN renal; over 100 µM in the experiment with SNB-19 CNS; over 100 µM in the experiment on SK-OV-3 ovarian; > 100 µM and 44.2 µM in the experiment on SF-268 CNS. Moreover, the GI50 in the experiment with UO-31 renal was > 100 µM and 44.9 µM; in the experiment with 786-0 renal, 74 µM and 26.3 µM; with IGROV1 ovarian, > 100 µM and 27.4 µM; with NCI-H23 lung, > 100 µM and 47 µM; in the experiment on ACHN renal, > 100 µM and 35.4 µM; with SNB-19 CNS it was 51.8 µM. Besides, the GI50 with SK-OV-3 ovarian was > 91.7 µM and 42.3 µM.

Regarding `NCCCNCCSSC/C=C\CSSCCNCCCN`, the TGI in the experiment with OVCAR-5 ovarian, with UO-31 renal, with 786-0 renal, in the experiment with IGROV1 ovarian, in the experiment with NCI-H23 lung and in the experiment on RPMI-8226 leukemia was over 100 µM in each case. Further, the TGI in the experiment on ACHN renal, in the experiment on SNB-19 CNS, in the experiment on SK-OV-3 ovarian and with SF-268 CNS was over 100 µM throughout.

With H-HIIKKIRTWYRKAWHVLGKV-NH2, the GI50 in the experiment on OVCAR-5 ovarian is 6.22 µM; in the experiment on UO-31 renal, 18.6 µM; with 786-0 renal, 3.37 µM; in the experiment with IGROV1 ovarian it was 4.32 µM; in the experiment with NCI-H23 lung it was 4.94 µM; in the experiment on RPMI-8226 leukemia it was 8.62 µM. Moreover, the GI50 is 13.2 µM in the experiment with ACHN renal, 18.3 µM with SNB-19 CNS, 6.36 µM in the experiment on SK-OV-3 ovarian and 3.43 µM in the experiment with SF-268 CNS. Besides, the TGI was 20.5 µM in the experiment on OVCAR-5 ovarian; 36.5 µM with UO-31 renal; 16.6 µM with 786-0 renal; 28.3 µM in the experiment on IGROV1 ovarian; 31.1 µM in the experiment with NCI-H23 lung; 45 µM in the experiment on RPMI-8226 leukemia. Further, the TGI in the experiment with ACHN renal was determined as 28.6 µM; with SNB-19 CNS it was 62 µM; in the experiment with SK-OV-3 ovarian it was 22.2 µM; in the experiment with SF-268 CNS, 19.8 µM.
